In test [1] the target is Human plasma kallikrein (Homo sapiens (Human), UniProt P03952). Kind of test: Determination of the IC50 for Plasma Kallikrein. The format is biochemical. Conditions: 37° C., fluorogenic substrate H-DPro-Phe-Arg-AFC; read-out: IC50 (human PKal). On the procedure:
Human plasma kallikrein (Protogen) was incubated at 37° C. with the fluorogenic substrate H-DPro-Phe-Arg-AFC and various concentrations of the test compound. Residual enzyme activity (initial rate of reaction) was determined by measuring the change in optical absorbance at 410 nm and the IC50 value for the test compound was determined.

Test [2] has as its target Human KLK1 (Homo sapiens (Human), UniProt P06870). In words: Determination of the IC50 for KLK1. The following applies: 37° C., fluorogenic substrate H-DVal-Leu-Arg-AFC. The format is biochemical. The procedure: KLK1 inhibitory activity in vitro was determined using standard published methods (see e.g. Johansen et al., Int. J. Tiss. Reac. 1986, 8, 185; Shori et al., Biochem. Pharmacol., 1992, 43, 1209; Stürzebecher et al., Biol. Chem. Hoppe-Seyler, 1992, 373, 1025). Human KLK1 (Callbiochem) was incubated at 37° C. with the fluorogenic substrate H-DVal-Leu-Arg-AFC and various concentrations of the test compound. Residual enzyme activity (initial rate of reaction) was determined by measuring the change in optical absorbance at 410 nm and the IC50 value for the test compound was determined.

SMILES strings stand for the structures.

Chain of Human KLK1 (P06870 25-262): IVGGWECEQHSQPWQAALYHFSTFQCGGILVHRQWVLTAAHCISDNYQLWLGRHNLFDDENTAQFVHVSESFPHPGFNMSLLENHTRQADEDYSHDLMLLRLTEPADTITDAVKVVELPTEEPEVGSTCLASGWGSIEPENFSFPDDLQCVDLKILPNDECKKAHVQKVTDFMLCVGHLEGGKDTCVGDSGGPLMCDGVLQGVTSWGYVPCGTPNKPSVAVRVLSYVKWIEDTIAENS
Chain of Human plasma kallikrein (P03952 391-638): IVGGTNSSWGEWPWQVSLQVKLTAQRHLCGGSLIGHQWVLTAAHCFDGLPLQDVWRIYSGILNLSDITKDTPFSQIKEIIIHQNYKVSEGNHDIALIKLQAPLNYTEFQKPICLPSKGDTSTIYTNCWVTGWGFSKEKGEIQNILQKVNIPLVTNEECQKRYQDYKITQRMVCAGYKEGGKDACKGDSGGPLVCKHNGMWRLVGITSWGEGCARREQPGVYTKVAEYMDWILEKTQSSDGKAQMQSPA
Chain of Human plasma kallikrein (P03952 20-390 partner): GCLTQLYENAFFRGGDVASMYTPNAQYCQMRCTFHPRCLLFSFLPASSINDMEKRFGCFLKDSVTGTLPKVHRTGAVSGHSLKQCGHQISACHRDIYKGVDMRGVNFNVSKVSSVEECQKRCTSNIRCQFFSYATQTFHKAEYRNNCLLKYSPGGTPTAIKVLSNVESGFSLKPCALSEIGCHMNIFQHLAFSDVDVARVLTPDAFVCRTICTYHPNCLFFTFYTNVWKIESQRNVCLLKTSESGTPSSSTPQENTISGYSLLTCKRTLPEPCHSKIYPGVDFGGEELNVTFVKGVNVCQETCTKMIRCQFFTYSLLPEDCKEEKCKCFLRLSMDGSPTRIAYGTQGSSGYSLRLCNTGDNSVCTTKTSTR

Broadly, the IC50 is the midpoint of a concentration-inhibition curve. `Cc1cc(C(=O)NCc2ccc(CN)cc2)c(C)n1Cc1csc(-c2cccc(F)c2)n1` [Example 29, 1-[2-(3-Fluoro-phenyl)-thiazol-4-ylmethyl]-2,5-dimethyl-1H-pyrrole-3-carboxylic acid 4-aminomethyl-benzylamide]: the IC50 in test [1] is 0.14 µM; in test [2] it was greater than 10 µM.
With `Cc1cccc(-c2nc(Cn3c(C)cc(C(=O)NCc4ccc(CN)cc4)c3C)cs2)c1` [Example 30, 2,5-Dimethyl-1-(2-m-tolyl-thiazol-4-ylmethyl)-1H-pyrrole-3-carboxylic acid 4-aminomethyl-benzylamide], the IC50 is 0.773 µM in test [1] and greater than 10 µM in test [2].
As to `Cc1cc(C(=O)NCc2ccc(CN)cc2)c(C)n1Cc1csc(-c2cccnc2)n1` [Example 31, 2,5-Dimethyl-1-(2-pyridin-3-yl-thiazol-4-ylmethyl)-1H-pyrrole-3-carboxylic acid 4-aminomethyl-benzylamide], the IC50 in test [1] amounted to 0.251 µM; in test [2], 8.08 µM.
The like results for `Cc1cc(C(=O)NCc2ccc(CN)cc2)c(C)n1Cc1csc(-c2ccncc2)n1` [Example 32, 2,5-Dimethyl-1-(2-pyridin-4-yl-thiazol-4-ylmethyl)-1H-pyrrole-3-carboxylic acid 4-aminomethyl-benzylamide] were, in that order, 0.732 µM and greater than 10 µM.
The like results for `Cc1ccc(-c2nc(Cn3c(C)cc(C(=O)NCc4ccc(CN)cc4)c3C)cs2)cc1` [Example 35, 2,5-Dimethyl-1-(2-p-tolyl-thiazol-4-ylmethyl)-1H-pyrrole-3-carboxylic acid 4-aminomethyl-benzylamide] were, in that order, 2.1 µM and greater than 10 µM.
`Cc1cc(C(=O)NCc2ccc(CN)cc2)c(C)n1Cc1csc(-c2ccccn2)n1` [Example 36, 2,5-Dimethyl-1-(2-pyridin-2-yl-thiazol-4-ylmethyl)-1H-pyrrole-3-carboxylic acid 4-aminomethyl-benzylamide]: the values for the IC50 in test [1] and in test [2] were 0.203 µM and greater than 10 µM, respectively.
As to `Cc1cc(C(=O)NCc2ccc(CN)cc2)c(C)n1Cc1csc(Cc2ccccc2)n1` [Example 38, 1-(2-Benzyl-thiazol-4-ylmethyl)-2,5-dimethyl-1H-pyrrole-3-carboxylic acid 4-aminomethyl-benzylamide], the 50% inhibitory concentration (IC50) in test [1] is 2.31 µM; in test [2], greater than 10 µM.
The like results for `Cc1cc(C(=O)NCc2ccc(CN)cc2)c(C)n1Cc1csc(-c2cnccn2)n1` [Example 40, 2,5-Dimethyl-1-(2-pyrazin-2-yl-thiazol-4-ylmethyl)-1H-pyrrole-3-carboxylic acid 4-aminomethyl-benzylamide] were, in that order, 1.66 µM and greater than 10 µM.
With `CCOc1ccc(-c2nc(Cn3c(C)cc(C(=O)NCc4ccc(CN)cc4)c3C)cs2)cc1` [Example 41, 1-[2-(4-Ethoxy-phenyl)-thiazol-4-ylmethyl]-2,5-dimethyl-1H-pyrrole-3-carboxylic acid 4-aminomethyl-benzylamide], the IC50 in test [1] was 4.7 µM; in test [2], greater than 10 µM.
For `Cc1cc(C(=O)N[C@H](C)c2ccc(CN)cc2)c(C)n1Cc1csc(-c2ccccc2)n1` [Example 42, 2,5-Dimethyl-1-(2-phenyl-thiazol-4-ylmethyl)-1H-pyrrole-3-carboxylic acid [(R)-1-(4-aminomethyl-phenyl)-ethyl]-amide] the same measures were 0.953 µM and greater than 10 µM.
Regarding `Cc1cc(C(=O)NCc2ccc(CN)nc2)c(C)n1Cc1csc(-c2cccc(F)c2)n1` [Example 44, 1-[2-(3-Fluoro-phenyl)-thiazol-4-ylmethyl]-2,5-dimethyl-1H-pyrrole-3-carboxylic acid (6-aminomethyl-pyridin-3-ylmethyl)-amide], the half-inhibitory concentration (IC50) was 0.355 µM in test [1] and greater than 10 µM in test [2].
The like results for `Cc1cc(CNC(=O)c2cc(C)n(Cc3csc(-c4ccccc4)n3)c2C)ccc1CN` [Example 46, 2,5-Dimethyl-1-(2-phenyl-thiazol-4-ylmethyl)-1H-pyrrole-3-carboxylic acid 4-aminomethyl-3-methyl-benzylamide] were, in that order, 1.16 µM and 4.89 µM.
The like results for `Cc1cc(C(=O)NCc2ccc(CN)cc2F)c(C)n1Cc1csc(-c2ccccc2)n1` [Example 47, 2,5-Dimethyl-1-(2-phenyl-thiazol-4-ylmethyl)-1H-pyrrole-3-carboxylic acid 4-aminomethyl-2-fluoro-benzylamide] were, in that order, 0.074 µM and greater than 10 µM.
`Cc1cc(C(=O)NCc2ccc([C@@H](C)N)cc2)c(C)n1Cc1csc(-c2ccccc2)n1` [Example 48, 2,5-Dimethyl-1-(2-phenyl-thiazol-4-ylmethyl)-1H-pyrrole-3-carboxylic acid 4-((R)-1-amino-ethyl)-benzylamide]: the half-maximal inhibitory concentration (IC50) in test [1] is 0.624 µM; in test [2] it was greater than 10 µM.
As for `Cc1cc(C(=O)NCc2ccc(CN)cc2Cl)c(C)n1Cc1csc(-c2ccccc2)n1` [Example 49, 2,5-Dimethyl-1-(2-phenyl-thiazol-4-ylmethyl)-1H-pyrrole-3-carboxylic acid 4-aminomethyl-2-chloro-benzylamide], the IC50 is 0.089 µM in test [1] and greater than 10 µM in test [2].
Regarding `Cc1cc(C(=O)NCc2ccc(CN)cc2C(F)(F)F)c(C)n1Cc1csc(-c2ccccc2)n1` [Example 50, 2,5-Dimethyl-1-(2-phenyl-thiazol-4-ylmethyl)-1H-pyrrole-3-carboxylic acid 4-aminomethyl-2-trifluoromethyl-benzylamide], the values for the IC50 in test [1] and in test [2] were 0.056 µM and greater than 10 µM, respectively.
For `Cc1cc(C(=O)NCc2ccc([C@H](C)N)cc2)c(C)n1Cc1csc(-c2ccccc2)n1` [Example 51, 2,5-Dimethyl-1-(2-phenyl-thiazol-4-ylmethyl)-1H-pyrrole-3-carboxylic acid-4-((S)-1-amino-ethyl)-benzylamide] the same measures were 0.341 µM and greater than 10 µM.
The like results for `Cc1cc(C(=O)NC2(c3ccc(CN)cc3)CC2)c(C)n1Cc1csc(-c2ccccc2)n1` [Example 52, 2,5-Dimethyl-1-(2-phenyl-thiazol-4-ylmethyl)-1H-pyrrole-3-carboxylic acid [1-(4-aminomethyl-phenyl)-cyclopropyl]-amide] were, in that order, 0.475 µM and greater than 10 µM.
`COc1cc(CNC(=O)c2cc(C)n(Cc3csc(-c4ccccc4)n3)c2C)ccc1CN` [Example 53, 2,5-Dimethyl-1-(2-phenyl-thiazol-4-ylmethyl)-1H-pyrrole-3-carboxylic acid 4-aminomethyl-3-methoxy-benzylamide]: the IC50 in test [1] was 0.677 µM; in test [2] it was greater than 10 µM.
For `COc1cc(CN)ccc1CNC(=O)c1cc(C)n(Cc2csc(-c3ccccc3)n2)c1C` [Example 54, 2,5-Dimethyl-1-(2-phenyl-thiazol-4-ylmethyl)-1H-pyrrole-3-carboxylic acid 4-aminomethyl-2-methoxy-benzylamide] the same measures were 0.03 µM and greater than 10 µM.
The like results for `Cc1cc(C(=O)NCc2ccc(CN)cc2Cl)c(C)n1Cc1ccccc1` [Example 56, 1-Benzyl-2,5-dimethyl-1H-pyrrole-3-carboxylic acid 4-aminomethyl-2-chloro-benzylamide] were, in that order, 3.86 µM and 5.48 µM.
Turning to `Cc1cc(C(=O)NCc2ccc(CN)cc2)c(-c2ccccc2)n1Cc1ccccc1` [Example 57, 1-Benzyl-5-methyl-2-phenyl-1H-pyrrole-3-carboxylic acid 4-aminomethyl-benzylamide], the IC50 in test [1] was 7.18 µM; in test [2], greater than 10 µM.
The like results for `CCOc1cccc(Cn2c(C)cc(C(=O)NCc3ccc(CN)cc3)c2C)c1` [Example 58, 1-(3-Ethoxy-benzyl)-2,5-dimethyl-1H-pyrrole-3-carboxylic acid 4-aminomethyl-benzylamide] were, in that order, 4.92 µM and greater than 10 µM.
With `CCOc1ccc(Cn2c(C)cc(C(=O)NCc3ccc(CN)cc3)c2C)cc1` [Example 59, 1-(4-Ethoxy-benzyl)-2,5-dimethyl-1H-pyrrole-3-carboxylic acid 4-aminomethyl-benzylamide], the IC50 is 2.74 µM in test [1] and greater than 10 µM in test [2].
For `Cc1cc(C(=O)NCc2ccc(CN)cc2)c(C)n1Cc1ccc(OCc2ccccc2)cc1` [Example 60, 1-(4-Benzyloxy-benzyl)-2,5-dimethyl-1H-pyrrole-3-carboxylic acid 4-aminomethyl-benzylamide] the same measures were 3.12 µM and greater than 10 µM.
For `COc1ccc(Cn2c(C)cc(C(=O)NCc3ccc(CN)cc3)c2C)cc1` [Example 61, 1-(4-Methoxy-benzyl)-2,5-dimethyl-1H-pyrrole-3-carboxylic acid 4-aminomethyl-benzylamide], the IC50 was 2.99 µM in test [1] and greater than 10 µM in test [2].
The like results for `Cc1cc(C(=O)NCc2ccc(CN)cc2)c(C)n1Cc1cccc(C(N)=O)c1` [Example 62, 1-(3-Carbamoyl-benzyl)-2,5-dimethyl-1H-pyrrole-3-carboxylic acid 4-aminomethyl-benzylamide] were, in that order, 6.03 µM and greater than 10 µM.
In the case of `Cc1cc(C(=O)NCc2ccc(CN)cc2)c(C)n1Cc1ccc(C(N)=O)cc1` [Example 63, 1-(4-Carbamoyl-benzyl)-2,5-dimethyl-1H-pyrrole-3-carboxylic acid 4-aminomethyl-benzylamide], the concentration for half-maximal inhibition (IC50) in test [1] was 7.34 µM; in test [2], greater than 10 µM.

The record behind these values is US9670157B2, “Benzylamine derivatives” (KALVISTA PHARMACEUTICALS LIMITED, priority 2013, dated 2017).
